Assays:
Type in all cases: cell-based
[1] = molecular target: T1, TRPA1 (Mus musculus, UniProt Q8BLA8); assay: fura-2 Ca2+ assay and whole-cell patch clamp in STC-1 cells; blocked by A967079 and HC030031
T1 construct: endogenous channel in mouse STC-1 cells

[2] = molecular target: T2, TRPA1 (Rattus norvegicus, UniProt Q6RI86, C622S); assay: fura-2 Ca2+ assay in HEK-293 cells transfected with C622S rat TRPA1
T2 construct: mutant rat C622S TRPA1

[3] = molecular target: T3, TRPA1 (Rattus norvegicus, UniProt Q6RI86); assay: fura-2 Ca2+ assay in HEK-293 cells transfected with rat TRPA1 versus empty vector; loss of response in C622S
T3 construct: wild-type rat TRPA1 (GenBank AY496961.1), 5' fused to YFP
T3 sequence (Q6RI86 whole entry, the tested form may be a part): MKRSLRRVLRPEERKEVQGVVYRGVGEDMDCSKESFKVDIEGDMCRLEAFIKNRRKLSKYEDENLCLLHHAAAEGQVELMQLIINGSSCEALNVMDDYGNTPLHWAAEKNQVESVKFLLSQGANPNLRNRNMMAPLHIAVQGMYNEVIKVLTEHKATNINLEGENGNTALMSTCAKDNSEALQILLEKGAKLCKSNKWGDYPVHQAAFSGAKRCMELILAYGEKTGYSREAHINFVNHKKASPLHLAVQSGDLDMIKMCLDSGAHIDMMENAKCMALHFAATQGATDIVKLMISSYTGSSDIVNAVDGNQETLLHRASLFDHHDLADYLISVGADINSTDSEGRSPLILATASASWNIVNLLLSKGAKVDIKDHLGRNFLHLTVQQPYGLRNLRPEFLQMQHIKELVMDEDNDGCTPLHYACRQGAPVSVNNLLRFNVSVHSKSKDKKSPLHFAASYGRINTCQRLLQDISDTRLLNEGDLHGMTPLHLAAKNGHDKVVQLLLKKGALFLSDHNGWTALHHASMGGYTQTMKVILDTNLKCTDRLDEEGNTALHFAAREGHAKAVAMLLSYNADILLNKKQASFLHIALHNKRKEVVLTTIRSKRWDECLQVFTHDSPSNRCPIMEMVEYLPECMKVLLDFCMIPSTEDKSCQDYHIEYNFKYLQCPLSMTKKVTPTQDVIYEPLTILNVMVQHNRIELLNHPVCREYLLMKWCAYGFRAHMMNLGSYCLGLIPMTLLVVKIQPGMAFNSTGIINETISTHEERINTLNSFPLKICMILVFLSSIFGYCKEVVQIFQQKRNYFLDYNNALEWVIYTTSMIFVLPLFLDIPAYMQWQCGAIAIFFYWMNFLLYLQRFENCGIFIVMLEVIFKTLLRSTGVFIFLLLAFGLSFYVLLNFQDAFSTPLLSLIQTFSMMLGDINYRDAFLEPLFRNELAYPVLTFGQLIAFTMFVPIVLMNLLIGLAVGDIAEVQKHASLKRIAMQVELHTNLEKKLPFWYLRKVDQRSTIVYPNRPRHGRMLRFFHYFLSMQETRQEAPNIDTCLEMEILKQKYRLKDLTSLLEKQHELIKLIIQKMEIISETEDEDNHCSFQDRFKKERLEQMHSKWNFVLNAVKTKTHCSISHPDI

T1 sequence (Q8BLA8 whole entry): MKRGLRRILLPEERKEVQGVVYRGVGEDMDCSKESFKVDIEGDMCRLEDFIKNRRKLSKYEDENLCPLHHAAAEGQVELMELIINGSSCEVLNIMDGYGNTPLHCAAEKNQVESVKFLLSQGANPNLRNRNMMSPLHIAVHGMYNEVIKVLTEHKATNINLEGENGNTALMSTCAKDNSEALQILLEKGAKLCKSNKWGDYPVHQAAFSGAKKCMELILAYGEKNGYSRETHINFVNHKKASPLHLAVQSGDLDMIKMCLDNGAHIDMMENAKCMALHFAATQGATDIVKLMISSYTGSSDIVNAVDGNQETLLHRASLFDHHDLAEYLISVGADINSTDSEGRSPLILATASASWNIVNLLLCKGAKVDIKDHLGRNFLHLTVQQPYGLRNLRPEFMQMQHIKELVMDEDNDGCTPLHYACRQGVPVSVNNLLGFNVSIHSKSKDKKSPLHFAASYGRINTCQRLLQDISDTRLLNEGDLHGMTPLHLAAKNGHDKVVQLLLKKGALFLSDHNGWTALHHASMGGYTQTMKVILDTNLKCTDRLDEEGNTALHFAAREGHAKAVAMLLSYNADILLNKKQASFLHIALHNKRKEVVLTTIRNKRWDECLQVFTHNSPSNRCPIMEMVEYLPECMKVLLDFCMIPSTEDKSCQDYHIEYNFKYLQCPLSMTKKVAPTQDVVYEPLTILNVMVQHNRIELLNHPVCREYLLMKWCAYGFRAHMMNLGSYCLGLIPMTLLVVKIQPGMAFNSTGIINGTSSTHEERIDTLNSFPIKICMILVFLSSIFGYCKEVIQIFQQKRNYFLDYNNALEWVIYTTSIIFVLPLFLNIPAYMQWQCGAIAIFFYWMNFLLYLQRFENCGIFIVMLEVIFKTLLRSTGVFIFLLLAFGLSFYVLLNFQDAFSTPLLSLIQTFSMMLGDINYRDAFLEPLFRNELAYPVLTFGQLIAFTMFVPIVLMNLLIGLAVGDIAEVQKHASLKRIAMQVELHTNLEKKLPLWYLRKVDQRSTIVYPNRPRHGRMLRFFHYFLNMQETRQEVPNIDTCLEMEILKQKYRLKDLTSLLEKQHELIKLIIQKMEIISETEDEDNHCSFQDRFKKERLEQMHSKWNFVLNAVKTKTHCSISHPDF
T2 sequence (Q6RI86 whole entry C622S): as the sequence (Q6RI86 whole entry, the tested form may be a part) above, with C622S counted along it

Compound | EC50 [1] | fura-2 Ca2+ assay in HEK-293 cells transfected with C622S rat TRPA1 [2] | fura-2 Ca2+ assay in HEK-293 cells transfected with rat TRPA1 versus empty vecto [3]
CC1(C)c2c([nH]c3ccc(Cl)cc23)C2C=CC1C2 (racemic) [JWU-A021] | ~200 nM | mutant C622S rat TRPA1 cDNA responded to JWU-A021 in a manner nearly identical to that of cells transfected with WT | –
C=CCN=C=S [AITC, allyl isothiocyanate] | – | – | the electrophile AITC must covalently modify C622 in order to fully activate the channel

From PMC4926213, “Synthetic small molecule GLP-1 secretagogues prepared by means of a three-component indole annulation strategy” (Scientific Reports, 2016)
